Structures can show the parent of a compound that is named as a salt.

The values that follow come from patent US12662451B2, “Chemical compounds and uses thereof” (GLAXOSMITHKLINE INTELLECTUAL PROPERTY (NO.4) LIMITED, priority 2023, dated 2026).

The target in experiment [1] is T1, recombinant full-length WRN protein (1-1432) (Homo sapiens, UniProt Q14191).
T1 construct: recombinant full-length WRN protein (1-1432)
Description: WRN unwinding activity, fluorogenic 384-well assay (Example A). The experiment is classed as biochemical. As to conditions: WRN unwinding activity, 4 hr; Table 2; read-out: 4 hr UNW pIC50 (converted). In a few lines: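 Read-out is end-point unwinding of a fluorophore/quencher duplex (ex 525, em 598 nm) after 60 min with 200 μM ATP and 12 nM DNA (2× stocks), EDTA stop. Compound first sat 4 h with 200 pM WRN (2× stock) in pH 8.0 Tris buffer; four-parameter fit gives pIC50.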

The subject of experiment [2] is SW48 human colorectal cancer cells (MSI-H cancer cells). Description: SW48 cell viability, CellTiter-Glo, 120 hours (Example B). The note with it: Homo sapiens, SW48, 120 h, read-out: SW48 pCC50, SW48 cell viability, 120 hours incubation (converted); Table 2. For orientation: In ATP-based viability assays light output follows the ATP content of the culture.
Description: SW48 human colorectal cancer cells (MSI-H cancer cells) were obtained from the American Type Culture Collection and maintained in growth medium composed of RPMI-1640 supplemented with 10% fetal bovine serum. Cells were maintained in a humidified 5% CO2 incubator at 37° C. Cell dissociation was conducted using TrypLE Select to detach cells from culture flasks. Following dissociation, cells were centrifuged briefly and resuspended in assay medium RPMI-1640+10% fetal bovine serum. Black 384-well assay plates were prepared from source plates of DMSO and compounds dissolved in DMSO prior to cell dispensation. These source plates were prepared in eleven point, 3-fold serial dilutions from 10 mM stocks stored at 4° C. Compounds and DMSO controls were dispensed into assay plates at 150 nanoliters per well from source plates using Labcyte Echo 555 or Echo 655T dispensers with Column 6 and Column 18 containing DMSO only. Cells were then seeded into prepared assay plates in 50 microliters assay medium at 250 cells per well into Columns 1 thru 17 and Columns 19-24. Assay medium without cells was added to column 18 to serve as a surrogate for 100% cell cytotoxicity. Following incubation for 120 hours in a humidified 5% CO2 incubator at 37° C., cellular ATP concentration of each well was measured and used as a surrogate of cell viability. This was performed by adding 50 microliters of CellTiter-Glo reagent to each well followed by a 10-minute incubation at room temperature. Luminescence was measured on a Synergy Neo or Synergy Neo2 multimode plate reader. Compound cytotoxic response (% C) was normalized to the robust means of column 6 (Control 1, 0% Cytotoxicity) and column 18 (Control 2, 100% Cytotoxicity) and normalized % cytotoxicity (% C) calculated. % C=100−100*((Compound−Control 2)/(Control1−Control2)). These normalized data were then used to determine a 50% cytotoxic response (CC50) using 4-parameter logistic curve model 201 in Activity Base XE:
[formula] • where A=minimum asymptote (% cytotoxicity), B=maximum asymptote (% cytotoxicity), C=Log CC50 (pCC50), D=Hill slope, and x=[inhibitor], (M).

T1 sequence (Q14191 whole entry): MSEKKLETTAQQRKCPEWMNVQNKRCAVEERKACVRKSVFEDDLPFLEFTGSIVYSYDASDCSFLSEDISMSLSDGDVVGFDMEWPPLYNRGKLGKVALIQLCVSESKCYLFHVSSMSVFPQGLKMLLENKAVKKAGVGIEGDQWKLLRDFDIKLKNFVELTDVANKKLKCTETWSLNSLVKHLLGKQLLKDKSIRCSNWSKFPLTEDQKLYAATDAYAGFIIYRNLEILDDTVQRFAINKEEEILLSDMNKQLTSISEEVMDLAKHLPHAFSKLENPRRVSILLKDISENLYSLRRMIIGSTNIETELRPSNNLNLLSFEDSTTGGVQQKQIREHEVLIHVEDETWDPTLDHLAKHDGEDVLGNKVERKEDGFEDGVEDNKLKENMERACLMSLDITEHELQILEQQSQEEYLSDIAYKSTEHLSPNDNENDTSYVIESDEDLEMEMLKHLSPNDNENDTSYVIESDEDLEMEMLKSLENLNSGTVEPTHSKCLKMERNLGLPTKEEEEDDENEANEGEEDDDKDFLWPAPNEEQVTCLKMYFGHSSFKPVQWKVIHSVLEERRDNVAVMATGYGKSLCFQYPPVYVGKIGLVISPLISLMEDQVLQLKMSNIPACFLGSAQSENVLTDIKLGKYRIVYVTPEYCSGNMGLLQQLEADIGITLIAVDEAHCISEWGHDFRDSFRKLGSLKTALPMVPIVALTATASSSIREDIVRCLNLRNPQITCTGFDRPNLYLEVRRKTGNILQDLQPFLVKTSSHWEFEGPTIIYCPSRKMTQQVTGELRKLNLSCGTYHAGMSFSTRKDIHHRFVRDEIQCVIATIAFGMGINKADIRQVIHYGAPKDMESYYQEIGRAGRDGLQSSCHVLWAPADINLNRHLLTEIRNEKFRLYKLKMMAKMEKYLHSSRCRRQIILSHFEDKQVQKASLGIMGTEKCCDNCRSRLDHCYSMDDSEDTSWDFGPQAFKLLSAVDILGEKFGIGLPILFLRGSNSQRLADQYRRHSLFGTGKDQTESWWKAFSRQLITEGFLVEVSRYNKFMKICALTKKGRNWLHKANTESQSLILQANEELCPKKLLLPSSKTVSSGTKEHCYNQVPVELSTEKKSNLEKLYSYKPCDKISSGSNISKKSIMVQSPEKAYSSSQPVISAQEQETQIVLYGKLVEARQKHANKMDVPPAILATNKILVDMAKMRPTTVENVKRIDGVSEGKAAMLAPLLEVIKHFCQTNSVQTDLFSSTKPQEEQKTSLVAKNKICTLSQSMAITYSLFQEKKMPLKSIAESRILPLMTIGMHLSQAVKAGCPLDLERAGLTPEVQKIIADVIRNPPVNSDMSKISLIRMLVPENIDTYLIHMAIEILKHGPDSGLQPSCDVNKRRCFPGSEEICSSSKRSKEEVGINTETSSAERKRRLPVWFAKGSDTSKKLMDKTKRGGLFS

Regarding `CN(c1ccc([C@H]2CCC[C@@H](C(=O)Nc3ccc(C(F)(F)F)cc3F)[C@@H]2C(=O)O)cc1)S(=O)(=O)c1c(Cl)cc(C(F)(F)F)cc1Cl` [Example 104, (1R,2S,6R)-2-(4-((2,6-dichloro-N-methyl-4-(trifluoromethyl)phenyl)sulfonamido)phenyl)-6-((2-fluoro-4-(trifluoromethyl)phenyl)carbamoyl)cyclohexane-1-carboxylic acid], in experiment [1], the IC50 was 39.8 nM. Further, the CC50 in experiment [2] is 3980 nM.
On the same counts, the results for `CN(c1ccc([C@H]2CCC[C@@H](C(=O)Nc3ccc(C(F)(F)F)cc3F)[C@@H]2C(=O)O)cc1)S(=O)(=O)c1ccc2ocnc2c1` [Example 106, (1R,2R,6S)-2-((2-fluoro-4-(trifluoromethyl)phenyl)carbamoyl)-6-(4-(N-methylbenzo[d]oxazole-5-sulfonamido)phenyl)cyclohexane-1-carboxylic acid] are 3.16 nM and 1580 nM.
On the same counts, the results for `CN(c1ccc([C@H]2CCC[C@@H](C(=O)Nc3ccc(C(F)(F)F)cc3F)[C@@H]2C(=O)O)cc1)S(=O)(=O)c1ccc2c(c1)CN(C(=O)C(F)(F)F)CC2` [Example 108, (1R,2R,6S)-2-((2-fluoro-4-(trifluoromethyl)phenyl)carbamoyl)-6-(4-((N-methyl-2-(2,2,2-trifluoroacetyl)-1,2,3,4-tetrahydroisoquinoline)-7-sulfonamido)phenyl)cyclohexane-1-carboxylic acid] are 3.16 nM and 2000 nM.
The matching figures for `CN(c1ccc([C@H]2CCC[C@@H](C(=O)Nc3ccc(C(F)(F)F)cc3F)[C@@H]2C(=O)O)cc1)S(=O)(=O)c1ccc2c(c1)CCN(C(=O)C(F)(F)F)C2` [Example 111, (1R,2R,6S)-2-((2-fluoro-4-(trifluoromethyl)phenyl)carbamoyl)-6-(4-((N-methyl-2-(2,2,2-trifluoroacetyl)-1,2,3,4-tetrahydroisoquinoline)-6-sulfonamido)phenyl)cyclohexane-1-carboxylic acid]: 2.51 nM and 1580 nM.
Take `CN1CCc2c(cccc2S(=O)(=O)N(C)c2ccc([C@H]3CCC[C@@H](C(=O)Nc4ccc(C(F)(F)F)cc4F)[C@@H]3C(=O)O)cc2)C1` [Example 114, (1R,2S,6R)-2-(4-((N,2-dimethyl-1,2,3,4-tetrahydroisoquinoline)-5-sulfonamido)phenyl)-6-((2-fluoro-4-(trifluoromethyl)phenyl)carbamoyl)cyclohexane-1-carboxylic acid]: the IC50 in experiment [1] is 7.94 nM. In addition, the CC50 in experiment [2] is 2510 nM.
Take `CN(c1ccc([C@H]2CCC[C@@H](C(=O)Nc3ccc(C(F)(F)F)cc3F)[C@@H]2C(=O)O)cc1)S(=O)(=O)c1ccc(C2CCN(C(=O)OC(C)(C)C)CC2)cc1` [Example 115, (1R,2S,6R)-2-(4-((3-(1-(tert-butoxycarbonyl)piperidin-4-yl)-N-methylphenyl)sulfonamido)phenyl)-6-((2-fluoro-4-(trifluoromethyl)phenyl)carbamoyl)cyclohexane-1-carboxylic acid]: the IC50 in experiment [1] is 5.01 nM. Also, the CC50 in experiment [2] is 1260 nM.
The matching figures for `CN(c1ccc([C@H]2CCC[C@@H](C(=O)Nc3ccc(C(F)(F)F)cc3F)[C@@H]2C(=O)O)cc1)S(=O)(=O)c1cccc(C2OCCO2)c1` [Example 118, (1R,2S,6R)-2-(4-((3-(1,3-dioxolan-2-yl)-N-methylphenyl)sulfonamido)phenyl)-6-((2-fluoro-4-(trifluoromethyl)phenyl)carbamoyl)cyclohexane-1-carboxylic acid]: 2 nM and 1260 nM.
The matching figures for `Cc1nc2ccc(S(=O)(=O)N(C)c3ccc([C@H]4CCC[C@@H](C(=O)Nc5ccc(C(F)(F)F)cc5F)[C@@H]4C(=O)O)cc3)cc2n1C` [Example 131, (1R,2R,6S)-2-((2-fluoro-4-(trifluoromethyl)phenyl)carbamoyl)-6-(4-((N,1,2-trimethyl-1H-benzo[d]imidazole)-6-sulfonamido)phenyl)cyclohexane-1-carboxylic acid]: 6.31 nM and 3980 nM.
On the same counts, the results for `CN(c1ccc([C@H]2CCC[C@@H](C(=O)Nc3ccc(C(F)(F)F)cc3F)[C@@H]2C(=O)O)cc1)S(=O)(=O)c1ccc(S(N)(=O)=O)cc1` [Example 133, (1R,2R,6S)-2-((2-fluoro-4-(trifluoromethyl)phenyl)carbamoyl)-6-(4-((N-methyl-4-sulfamoylphenyl)sulfonamido)phenyl)cyclohexane-1-carboxylic acid] are 3.98 nM and 12600 nM.
For `CN(c1ccc([C@H]2CCC[C@@H](C(=O)Nc3ccc(C(F)(F)F)cc3F)[C@@H]2C(=O)O)cc1)S(=O)(=O)c1cccc(S(N)(=O)=O)c1` [Example 134, (1R,2R,6S)-2-((2-fluoro-4-(trifluoromethyl)phenyl)carbamoyl)-6-(4-((N-methyl-3-sulfamoylphenyl)sulfonamido)phenyl)cyclohexane-1-carboxylic acid], the IC50 in experiment [1] is 7.94 nM. The CC50 in experiment [2] is 12600 nM.
The matching figures for `C=CS(=O)(=O)N(C)c1ccc([C@H]2CCC[C@@H](C(=O)Nc3ccc(C(F)(F)F)cc3F)[C@@H]2C(=O)O)cc1` [Example 135, (1R,2R,6S)-2-((2-fluoro-4-(trifluoromethyl)phenyl)carbamoyl)-6-(4-(N-methylvinylsulfonamido)phenyl)cyclohexane-1-carboxylic acid]: 2.51 nM and 2510 nM.
On the same counts, the results for `COc1cc(S(=O)(=O)N(C)c2ccc([C@H]3CCC[C@@H](C(=O)Nc4ccc(C(F)(F)F)cc4F)[C@@H]3C(=O)O)cc2)ccc1Br` [Example 136, (1R,2S,6R)-2-(4-((4-bromo-3-methoxy-N-methylphenyl)sulfonamido)phenyl)-6-((2-fluoro-4-(trifluoromethyl)phenyl)carbamoyl)cyclohexane-1-carboxylic acid] are 39.8 nM and 3160 nM.
In the case of `Cc1nc2cc(S(=O)(=O)N(C)c3ccc([C@H]4CCC[C@@H](C(=O)Nc5ccc(C(F)(F)F)cc5F)[C@@H]4C(=O)O)cc3Br)ccc2n1C` [Example 166, (1R,2S,6R)-2-(3-bromo-4-((N,1,2-trimethyl-1H-benzo[d]imidazole)-5-sulfonamido)phenyl)-6-((2-fluoro-4-(trifluoromethyl)phenyl)carbamoyl)cyclohexane-1-carboxylic acid], the IC50 in experiment [1] was 7.94 nM. For the same compound, the CC50 in experiment [2] is 2510 nM.
Take `Cc1nc2cc(S(=O)(=O)N(C)c3ccc([C@H]4CCC[C@@H](C(=O)Nc5ccc(C(F)(F)F)cc5F)[C@@H]4C(=O)O)cc3C#CC(C)(C)O)ccc2n1C` [Example 167, (1R,2R,6S)-2-((2-fluoro-4-(trifluoromethyl)phenyl)carbamoyl)-6-(3-(3-hydroxy-3-methylbut-1-yn-1-yl)-4-((N,1,2-trimethyl-1H-benzo[d]imidazole)-5-sulfonamido)phenyl)cyclohexane-1-carboxylic acid]: the IC50 in experiment [1] is 5.01 nM. In addition, in experiment [2], the CC50 was 20000 nM.
Take `Cc1nc2cc(S(=O)(=O)N(C)c3ccc([C@H]4CCC[C@@H](C(=O)NC56CC(CC(F)(F)F)(C5)C6)[C@@H]4C(=O)O)cc3)ccc2n1C` [Example 174, (1R,2R,6S)-2-((3-(2,2,2-trifluoroethyl)bicyclo[1.1.1]pentan-1-yl)carbamoyl)-6-(4-((N,1,2-trimethyl-1H-benzo[d]imidazole)-5-sulfonamido)phenyl)cyclohexane-1-carboxylic acid]: the IC50 in experiment [1] is 20 nM. For the same compound, the CC50 in experiment [2] was 10000 nM.
The matching figures for `Cc1nc2cc(S(=O)(=O)N(C)c3ccc([C@H]4CCC[C@@H](C(=O)Nc5ccc(C6CCC6)cc5F)[C@@H]4C(=O)O)cc3)ccc2n1C` [Example 175, (1R,2R,6S)-2-((4-cyclobutyl-2-fluorophenyl)carbamoyl)-6-(4-((N,1,2-trimethyl-1H-benzo[d]imidazole)-5-sulfonamido)phenyl) cyclohexane-1-carboxylic acid]: 3.16 nM and 1580 nM.
For the compound `CC[C@H]1CC[C@H](NC(=O)[C@@H]2CCC[C@H](c3ccc(N(C)S(=O)(=O)c4ccc5c(c4)nc(C)n5C)cc3)[C@H]2C(=O)O)CC1` [Example 176, (1R,2R,6S)-2-(((1r,4R)-4-ethylcyclohexyl)carbamoyl)-6-(4-((N, 1,2-trimethyl-1H-benzo[d]imidazole)-5-sulfonamido)phenyl)cyclohexane-1-carboxylic acid], in experiment [1], the IC50 is 1.26 nM. Also, the CC50 in experiment [2] is 1260 nM.
On the same counts, the results for `Cc1nc2cc(S(=O)(=O)N(C)c3ccc([C@H]4CCC[C@@H](C(=O)N[C@H]5CC[C@H](C(C)(C)F)CC5)[C@@H]4C(=O)O)cc3)ccc2n1C` [Example 182, (1R,2R,6S)-2-(((1r,4R)-4-(2-fluoropropan-2-yl)cyclohexyl)carbamoyl)-6-(4-((N, 1,2-trimethyl-1H-benzo[d]imidazole)-5-sulfonamido)phenyl)cyclohexane-1-carboxylic acid] are 2.51 nM and 1580 nM.
On the same counts, the results for `Cc1nc2cc(S(=O)(=O)N(C)c3ccc([C@H]4CCC[C@@H](C(=O)NC56CC(C7CCCC7)(C5)C6)[C@@H]4C(=O)O)cc3)ccc2n1C` [Example 187, (1R,2R,6S)-2-((3-cyclopentylbicyclo[1.1.1]pentan-1-yl)carbamoyl)-6-(4-((N,1,2-trimethyl-1H-benzo[d]imidazole)-5-sulfonamido)phenyl)cyclohexane-1-carboxylic acid, formic acid salt] are 6.31 nM and 3980 nM.
